In patent US20240308973A1, “PHOSPHODIESTERASE 3 (PDE3) INHIBITORS” (Zoetis Services LLC, priority 2023, published 2024):

Tests used:
[1] = Dog plasma half-life after oral dose; type: in vivo; conditions: Beagle dogs, oral dose 0.1 mg/kg, plasma over 72 hours, read-out: t½ (hrs), Dog Plasma Compound Half-life (converted)
Description: Lastly, plasma half-life was assessed for a number of compounds in dogs. Beagle dogs were given an oral dose (0.1 mg/kg) of the respective compound accounting for a dose amount of about 1 mg/dog. Pimopendan was administered at a 0.3 mg/kg dose.

[2] = target: dog PDE3A recombinant enzyme (Canis lupus familiaris, UniProt A0A8I3NYE0); assay: cPDE3A assay (fluorescent polarization); type: biochemical; conditions: canine PDE3A, read-out: cPDE3 Inhibition (IC50)
Description: cPDE3A Assay (Fluorescent Polarization)
The canine PDE3A assay kit was purchased from BPS Bioscience (San Diego, CA) which included dog PDE3A recombinant enzyme, FAM-cyclic-3′,5′-AMP (20 μM), PDE3 assay buffer, binding agent, binding agent diluent and microtiter 96-well plates. Compounds were initially dissolved in DMSO. The stock concentration was subsequently diluted in cPDE assay buffer (10× stock) and serially diluted to give a concentration response curve starting at 10 μM (≥7 total concentrations). Following the serial dilution, compound solution (0.1% final DMSO) was transferred to an assay plate (96-well) where the remaining canine PDE3A assay reagents were dispensed according to the BPS Bioscience® protocol (catalog #79735) procedure using a final concentration of 5 pg/μL of enzyme. Each compound was evaluated for the inhibition of the canine PDE3A enzyme activity using the measurement of fluorescent polarization changes. The 50% inhibition concentration (IC50) nM was calculated and reported.

dog PDE3A recombinant enzyme, sequence (A0A8I3NYE0 1-1135): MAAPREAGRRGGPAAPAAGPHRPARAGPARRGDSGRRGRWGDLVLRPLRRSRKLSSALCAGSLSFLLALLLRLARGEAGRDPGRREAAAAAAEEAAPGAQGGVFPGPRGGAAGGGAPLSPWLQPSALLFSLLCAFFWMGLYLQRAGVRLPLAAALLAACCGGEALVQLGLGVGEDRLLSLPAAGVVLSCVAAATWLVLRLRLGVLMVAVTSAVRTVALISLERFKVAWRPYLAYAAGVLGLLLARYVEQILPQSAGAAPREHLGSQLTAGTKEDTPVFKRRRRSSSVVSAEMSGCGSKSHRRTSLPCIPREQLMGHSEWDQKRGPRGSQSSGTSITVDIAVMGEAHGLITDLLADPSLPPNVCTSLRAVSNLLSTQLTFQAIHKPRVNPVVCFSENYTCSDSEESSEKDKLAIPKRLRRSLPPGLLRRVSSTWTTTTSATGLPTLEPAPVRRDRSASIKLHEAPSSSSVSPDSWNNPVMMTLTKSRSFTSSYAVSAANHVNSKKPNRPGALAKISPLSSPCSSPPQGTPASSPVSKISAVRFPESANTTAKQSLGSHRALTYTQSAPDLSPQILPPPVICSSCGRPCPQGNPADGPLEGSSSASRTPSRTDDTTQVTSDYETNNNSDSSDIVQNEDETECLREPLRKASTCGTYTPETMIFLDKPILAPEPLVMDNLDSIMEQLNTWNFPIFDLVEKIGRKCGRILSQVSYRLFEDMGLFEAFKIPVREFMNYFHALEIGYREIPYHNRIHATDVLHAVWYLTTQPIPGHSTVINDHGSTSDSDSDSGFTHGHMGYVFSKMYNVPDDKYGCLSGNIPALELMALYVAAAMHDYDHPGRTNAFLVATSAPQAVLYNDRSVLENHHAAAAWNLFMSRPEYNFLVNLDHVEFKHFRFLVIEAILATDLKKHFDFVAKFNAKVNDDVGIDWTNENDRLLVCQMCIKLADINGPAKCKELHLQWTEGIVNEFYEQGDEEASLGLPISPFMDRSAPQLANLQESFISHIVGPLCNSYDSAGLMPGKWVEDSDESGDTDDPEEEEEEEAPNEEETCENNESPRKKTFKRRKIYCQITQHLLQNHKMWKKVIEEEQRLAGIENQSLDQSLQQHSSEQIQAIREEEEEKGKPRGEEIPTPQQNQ

| Structure (SMILES) | half-life [1] [h] | IC50 [2] [nM] |
| --- | --- | --- |
| CC1SC(=O)NN=C1c1cc(-c2cscn2)c2c(c1)C(C)(C)C(=O)N2 (stereo not shown) [Example #68, 5-(3,3-dimethyl-2-oxo-7-(thiazol-4-yl)indolin-5-yl)-6-methyl-3,6-dihydro-2H-1,3,4-thiadiazin-2-one] | 12 | 118 |
| O=C1CCCc2cc(C3=NNC(=O)SC3)ccc2N1 [Example #72, 5-(2-oxo-2,3,4,5-tetrahydro-1H-benzo[b]azepin-7-yl)-3,6-dihydro-2H-1,3,4-thiadiazin-2-one] | 3.9 | 28.2 |
| CC1(C)C(=O)Nc2c(Cl)cc(-c3cncnc3)cc21 [Example #86, 7-chloro-3,3-dimethyl-5-(pyrimidin-5-yl)indolin-2-one] | 96 | 115 |
| CC1SC(=O)NN=C1c1cc2c(c(-c3ccc(Cl)cc3)c1)NC(=O)C2 (stereo not shown) [Example #71, 5-(7-(4-chlorophenyl)-2-oxoindolin-5-yl)-6-methyl-3,6-dihydro-2H-1,3,4-thiadiazin-2-one] | 5.4 | 90.4 |
| CC1SC(=O)NN=C1c1cc(Cl)c2c(c1)CC(=O)N2 (stereo not shown) [Example #62, 5-(7-chloro-2-oxoindolin-5-yl)-6-methyl-3,6-dihydro-2H-1,3,4-thiadiazin-2-one] | 5 |  |
| COc1ccc(C2(c3nc4ccc(C5=NNC(=O)CC5C)cc4[nH]3)CC2)cc1 (stereo not shown) [Example #19, 6-(2-(1-(4-methoxyphenyl)cyclopropyl)-1H-benzo[d]imidazol-6-yl)-5-methyl-4,5-dihydropyridazin-3 (2H)-one] | 16 |  |
| CC1(C)C(=O)Nc2c(Cl)cc(C3=NNC(=O)SC3)cc21 [Example #61, 5-(7-chloro-3,3-dimethyl-2-oxoindolin-5-yl)-3,6-dihydro-2H-1,3,4-thiadiazin-2-one] | 8.5 |  |
| C[C@H]1CC(=O)NN=C1c1cc(Cl)c2c(c1)C(C)(C)NC2=O [Example #51, (S)-7-chloro-3,3-dimethyl-5-(4-methyl-6-oxo-1,4,5,6-tetrahydropyridazin-3-yl)isoindolin-2-one] |  | 336 |
| CC1CC(=O)NN=C1c1cc2c(c(-c3cccnc3)c1)NC(=O)CC2 (stereo not shown) [Example #13, 6-(4-methyl-6-oxo-1,4,5,6-tetrahydropyridazin-3-yl)-8-(pyridin-3-yl)-3,4-dihydroquinolin-2 (1H)-one] |  | 44.4 |
| COc1cc(-c2cc(C3=NNC(=O)CC3C)cc3c2NC(=O)CC3)ccn1 (stereo not shown) [Example #1, 8-(2-methoxypyridin-4-yl)-6-(4-methyl-6-oxo-1,4,5,6-tetrahydropyridazin-3-yl)-3,4-dihydroquinolin-2 (1H)-one] |  | 29.2 |
| CC1(C)C(=O)Nc2c(Br)cc(-c3ccc(=O)[nH]n3)cc21 [Example #32, 7-bromo-3,3-dimethyl-5-(6-oxo-1,6-dihydropyridazin-3-yl)indolin-2-one] |  | 26.7 |
| CC1SC(=O)NN=C1c1cc2c(c(-c3ccc(S(C)(=O)=O)cc3)c1)NC(=O)C2 (stereo not shown) [Example #63, 6-methyl-5-(7-(4-(methylsulfonyl)phenyl)-2-oxoindolin-5-yl)-3,6-dihydro-2H-1,3,4-thiadiazin-2-one] |  | 30.5 |
| CC1SC(=O)NN=C1c1cc(C#N)c2c(c1)CC(=O)N2 (stereo not shown) [Example #77, 5-(6-methyl-2-oxo-3,6-dihydro-2H-1,3,4-thiadiazin-5-yl)-2-oxoindoline-7-carbonitrile] |  | 41.6 |
| COc1ccc(-c2cc(C3=NNC(=O)CC3C)cc3c2NC(=O)CC3)cn1 (stereo not shown) [compound 14, 8-(6-methoxypyridin-3-yl)-6-(4-methyl-6-oxo-1,4,5,6-tetrahydropyridazin-3-yl)-3,4-dihydroquinolin-2 (1H)-one] |  | 50.2 |
| CC1SC(=O)NN=C1c1cc2c(c(-c3ccccc3)c1)NC(=O)C2 (stereo not shown) [compound 70, 6-methyl-5-(2-oxo-7-phenylindolin-5-yl)-3,6-dihydro-2H-1,3,4-thiadiazin-2-one] |  | 80.7 |
| CC1CC(=O)NN=C1c1ccc2nc(Oc3ccc4ncsc4c3)[nH]c2c1 (stereo not shown) [compound 22, 6-(2-(benzo[d]thiazol-6-yloxy)-1H-benzo[d]imidazol-6-yl)-5-methyl-4,5-dihydropyridazin-3 (2H)-one] |  | 33.1 |
| Cc1cc(=O)[nH]nc1-c1cc(-c2cscn2)c2c(c1)C(C)(C)C(=O)N2 [Example #17, 3,3-dimethyl-5-(4-methyl-6-oxo-1,6-dihydropyridazin-3-yl)-7-(thiazol-4-yl)indolin-2-one] |  | 62.4 |

Second part, the compound after the results:

| half-life [1] [h] | IC50 [2] [nM] | Structure (SMILES) |
| --- | --- | --- |
| 50 | 9.7 | CC1SC(=O)NN=C1c1cc(Cl)c2c(c1)C(C)(C)C(=O)N2 (stereo not shown) [Example #75, 5-(7-chloro-3,3-dimethyl-2-oxoindolin-5-yl)-6-methyl-3,6-dihydro-2H-1,3,4-thiadiazin-2-one] |
| 10.2 | 24.4 | CC1(C)C(=O)Nc2c(Br)cc(C3=NNC(=O)SC3)cc21 [Example #66, 5-(7-bromo-3,3-dimethyl-2-oxoindolin-5-yl)-3,6-dihydro-2H-1,3,4-thiadiazin-2-one] |
| 94 | 9.1 | CC1CC(=O)NN=C1c1cc(Br)c2c(c1)C(C)(C)C(=O)N2 (stereo not shown) [Example #23, 7-bromo-3,3-dimethyl-5-(4-methyl-6-oxo-1,4,5,6-tetrahydropyridazin-3-yl)indolin-2-one] |
| 7.5 | 4.9 | Cc1cc(C2=NNC(=O)SC2C)cc2c1NC(=O)CCC2 (stereo not shown) [Example #73, 6-methyl-5-(9-methyl-2-oxo-2,3,4,5-tetrahydro-1H-benzo[b]azepin-7-yl)-3,6-dihydro-2H-1,3,4-thiadiazin-2-one] |
| 50 | 5.4 | CC1CC(=O)NN=C1c1cc(Cl)c2c(c1)C(C)(C)C(=O)N2 (racemic) [Example #24, 7-chloro-3,3-dimethyl-5-(4-methyl-6-oxo-1,4,5,6-tetrahydropyridazin-3-yl)indolin-2-one] |
|  | 10.9 | CC1SC(=O)NN=C1c1cc(Br)c2c(c1)CC(=O)N2 (stereo not shown) [compound 69, 5-(7-bromo-2-oxoindolin-5-yl)-6-methyl-3,6-dihydro-2H-1,3,4-thiadiazin-2-one] |
|  | 4.3 | CC1SC(=O)NN=C1c1cc(Br)c2c(c1)CCC(=O)N2 (stereo not shown) [Example #65, 5-(8-bromo-2-oxo-1,2,3,4-tetrahydroquinolin-6-yl)-6-methyl-3,6-dihydro-2H-1,3,4-thiadiazin-2-one] |
|  | 5.5 | CC1CC(=O)NN=C1c1cc(F)c2nc(N)sc2c1 (stereo not shown) [Example #31, 6-(2-amino-4-fluorobenzo[d]thiazol-6-yl)-5-methyl-4,5-dihydropyridazin-3 (2H)-one] |
|  | 24.7 | O=c1ccc(-c2cc(Cl)c3[nH]c(=O)sc3c2)n[nH]1 [compound 52, 4-chloro-6-(6-oxo-1,6-dihydropyridazin-3-yl)benzo[d]thiazol-2 (3H)-one] |
|  | 7.8 | C[C@@H]1SC(=O)NN=C1c1cc(F)c2c(c1)CC(=O)N2 [Example #78, (S)-5-(7-fluoro-2-oxoindolin-5-yl)-6-methyl-3,6-dihydro-2H-1,3,4-thiadiazin-2-one] |
|  | 25.3 | CC1(C)C(=O)Nc2c(Cl)cc(-c3n[nH]c(=O)s3)cc21 [compound 89, 5-(7-chloro-3,3-dimethyl-2-oxoindolin-5-yl)-1,3,4-thiadiazol-2 (3H)-one] |
|  | 3.4 | CC1(C)C(=O)Nc2c(Cl)cc(-c3cnc4c(c3)CCC(=O)N4)cc21 [Example #87, 6-(7-chloro-3,3-dimethyl-2-oxoindolin-5-yl)-3,4-dihydro-1,8-naphthyridin-2 (1H)-one] |
|  | 15.4 | CC1CC(=O)NN=C1c1cc(Cl)c2c(c1)C(C)(C)NC2=O (stereo not shown) [Example #41, 7-chloro-3,3-dimethyl-5-(4-methyl-6-oxo-1,4,5,6-tetrahydropyridazin-3-yl)isoindolin-1-one] |
|  | 4.9 | CC1CC(=O)NN=C1c1cc(F)c2c(c1)CC(=O)N2 (stereo not shown) [Example #50, 7-fluoro-5-(4-methyl-6-oxo-1,4,5,6-tetrahydropyridazin-3-yl)indolin-2-one] |
|  | 4.7 | Cc1cc(C2=NNC(=O)S[C@@H]2C)cc2ccc(O)nc12 [compound 60, (R)-5-(2-hydroxy-8-methylquinolin-6-yl)-6-methyl-3,6-dihydro-2H-1,3,4-thiadiazin-2-one] |
|  | 3.9 | CC1CC(=O)NN=C1c1cc(Cl)c2c(c1)C1(CC1)C(=O)N2 (stereo not shown) [Example #8, 7′-chloro-5′-(4-methyl-6-oxo-1,4,5,6-tetrahydropyridazin-3-yl)spiro[cyclopropane-1,3′-indolin]-2′-one] |
|  | 18 | CC1CC(=O)NN=C1c1cc(C2CC2)c2nc(O)ccc2c1 (stereo not shown) [compound 48, 6-(8-cyclopropyl-2-hydroxyquinolin-6-yl)-5-methyl-4,5-dihydropyridazin-3 (2H)-one] |
|  | 13.6 | O=C1CCc2cc(-c3ccc(=O)[nH]n3)cc(-c3ccc(Cl)cc3)c2N1 [Example #9, 8-(4-chlorophenyl)-6-(6-oxo-1,6-dihydropyridazin-3-yl)-3,4-dihydroquinolin-2 (1H)-one] |
|  | 7.3 | CC1CC(=O)NN=C1c1ccc2nc(Nc3ccc4ncsc4c3)n(C)c2c1 (stereo not shown) [compound 10, 6-(2-(benzo[d]thiazol-6-ylamino)-1-methyl-1H-benzo[d]imidazol-6-yl)-5-methyl-4,5-dihydropyridazin-3 (2H)-one] |
|  | 3.7 | CNc1nc2c(F)cc(C3=NNC(=O)CC3C)cc2s1 (stereo not shown) [Example #34, 6-(4-fluoro-2-(methylamino)benzo[d]thiazol-6-yl)-5-methyl-4,5-dihydropyridazin-3 (2H)-one] |
